Source: patent US9200067B2, “Molecular marker CUEDC2 protein for prognostic determination of breast cancer endocrinology therapy” (Biomedical Analysis Center of Academy of Military Medical …, priority 2011, dated 2015)
“Also recorded” adds a separate entry of the source.

Key:
[1] = tested on: MCF-7 cells stably transfected with CUEDC2; test: Cell growth by cell counting under different doses of tamoxifen; assay type: cell-based
Method: (§1) MCF-7 cells stably transfected with CUEDC2 were treated with different doses of tamoxifen, and then the cell growth was observed by a cell counting method. […] In order to eliminate nonspecific effects of over expression of CUEDC2 on cells growth, the inventors knocked down the CUEDC2 expression in the cells and did the same cell growth experiment. […] In order to verify the above conclusion, the inventors further conducted animal experiments. 5×10^6 MCF-7/vector or MCF-7/CUEDC2 cells were injected into the mammary fat pad of ovariectomized nude mice, and estrogen sustained-release tablets were embedded subcutaneously. When tumors grew to 100-150 mm^3, nude mice were divided into two groups randomly, and embedded with tamoxifen or control placebo pills subcutaneously.

[2] = tested on: MCF-7/vector or MCF-7/CUEDC2 cells; test: Tumor formation in ovariectomized nude mice (mammary fat pad xenograft); assay type: in vivo; conditions: tamoxifen sustained-release tablets subcutaneously, vs placebo
Method: 4-week-old female nude mice were purchased from Animal Laboratory Center of the Academy of Military Medical Sciences; the Cell Titer Glo Luminescent Cell Viability Assay was purchased from Promega Company; the Estrogen and tamoxifen sustained-release tablets were purchased from Innovative Research of America.
as §1

[3] = tested on: MCF-7 cells; test: Crystal violet colony-formation assay; assay type: cell-based

CC/C(=C(\c1ccccc1)c1ccc(OCCN(C)C)cc1)c1ccccc1 [tamoxifen]
sensitivity of cell growth to tamoxifen ([1]; MCF-7 cells over expressing CUEDC2, different doses of tamoxifen): insensitive
sensitivity of cells to tamoxifen after CUEDC2 knockdown ([1]; MCF-7 cells over expressing CUEDC2 knocked down by CUEDC2 siRNA): restored the sensitivity
tumor growth ([2]; MCF-7/CUEDC2 cells in nude mice): could not effectively inhibit; also recorded: cannot inhibit tumor growth effectively
tumor growth ([2]; MCF-7/vector cells in nude mice): significantly inhibit
sensitivity to tamoxifen-induced cell death ([3]; cells over expressing CUEDC2): insensitive
sensitivity to tamoxifen-induced cell death ([3]; control MCF-7 empty vector cells): sensitive
